What was measured:
Format in all cases: in vivo
C3H male mice = assay: Hair growth test on shaved backs of mice; conditions: for Hair growth state 2 weeks after application: 20 μL on shaved back, mice with hair growth / mice
Protocol: The FCG obtained in Production Example 1, the SCG obtained in Production Example 2, the CSG obtained in Production Example 3, and the RSG obtained in Production Example 4 were each dissolved, in 70% by mass ethanol water, and the following solutions were prepared:
Furthermore, commercially available cholesterol (hereinafter, abbreviated as “Cho”) was dissolved in 70% by mass ethanol water to prepare a Cho 10 pg/mL solution.
The body hair on the back of 8 to 9-week-old C3H male mice was shaved using an electric clippers for animal use (“Thrive clipper, Model 600AD” manufactured by Daito Electric Company) together with a rotary shaver (National ES611).
Each of the sample solutions (20 μL) was applied in four portions to the skin in central parts of the shaved backs of mice while repeating air drying. The application was conducted 24 hours after shaving.
The hair growth effect was evaluated 2 weeks after the application of the sample solution on the basis of observation with the naked eye and photographs taken by a digital camera. Furthermore, as controls, mice applied with 70% by mass ethanol water and mice not applied with a sample solution were used.

[1] = system: Hsp70 (heat shock protein 70); assay: Preliminary test for hair growth using mice, Hsp70 immunostaining of skin; conditions: 10 pg/mL, 3 hours after application; hair papilla cells of hair root in telogen
Protocol: (§1) A 70% by mass aqueous ethanol solution containing FCG obtained in Production Example 1 at a concentration of 10 pg/mL (sample solution) was prepared.
(§2) The sample solution (20 μL) was applied onto the shaved back skin of four 9-week-old ICR male mice, and skin was collected after 3 hours and after 6 hours.
(§3) The skin was subjected to immunostaining for bFGF (basic fibroblast growth factor), Hsp70 (heat shock protein 70), and VEGF (vascular endothelial cell growth factor) by the fluorescent antibody technique and HE staining (hematoxylin-eosin staining), and samples of 14 μm-thick cryostat sections were prepared.

[2] = system: shaved back skin of ICR male mice; assay: Preliminary test for hair growth using mice, HE staining of skin; conditions: 10 pg/mL, 20 μL
Protocol: as §1, §2, §3

head hair = assay: Hair growth effect on human head hair; conditions: person
Protocol: (§4) The hair growth effect of FCG on head hair of a person was examined.
After hair was thoroughly washed and dried completely with a dryer, about 3.5 mL of a 70% by mass aqueous ethanol solution (sample solution) containing FCG at a concentration of 10 pg/mL was evenly applied, to the scalp once a day.
Before use of the sample solution and 4 months after start of use, photographs were taken by a digital camera from the forehead and the top of head.
as §4
After hair was thoroughly washed and naturally dried completely, about 3.5 mL of a 70% by mass aqueous ethanol solution (sample solution) containing FCG at a concentration of 10 pg/mL was evenly applied to the scalp once a day.
On the date of start of use of the sample solution and 5 months after start of use, photographs of the forehead and the top of head were taken by a digital camera.

[3] = system: bFGF (basic fibroblast growth factor); assay: Preliminary test for hair growth using mice, bFGF immunostaining of skin
Protocol: as §1, §2, §3

[4] = system: VEGF (vascular endothelial cell growth factor); assay: Preliminary test for hair growth using mice, VEGF immunostaining of skin; conditions: 10 pg/mL, 3 hours after application
Protocol: as §1, §2, §3

[5] = C3H mice, 2 weeks after application
[6] = 10 pg/mL, about 3.5 mL once a day, 5 months after start of use
[7] = 10 pg/mL, 6 hours after application

CC(C)CCC[C@@H](C)[C@H]1CC[C@H]2[C@@H]3CC=C4C[C@@H](O)CC[C@]4(C)[C@H]3CC[C@]12C [Cho, cholesterol, reference compound]
Hair growth state 2 weeks after application (C3H male mice; 10 pg/mL in 70% ethanol water): 4/8 | Hair growth action (summary of Table 1) (C3H male mice; [5]): weak

CC(C)CCC[C@@H](C)[C@H]1CC[C@H]2[C@@H]3CC=C4C[C@@H](O[C@@H]5O[C@H](CO)[C@@H](O)[C@H](O)[C@H]5O)CC[C@]4(C)[C@H]3CC[C@]12C [FCG, cholesteryl glucopyranoside]
Hsp70 expression (immunostaining) [1]: Weak to moderate expression of Hsp70 was detected | HE staining, hair root and hair bulb ([2]; 3 hours after application, one of two mice): local extension of the hair root and enlargement of the hair bulb were observed | HE staining, hair root ([2]; 6 hours after application): Most of the hair roots extended to the subcutaneous tissue | Hair growth on forehead and top of head (head hair; 10 pg/mL, about 3.5 mL once a day, 4 months after start of use): a large amount of hair growth was observed | Hair growth on forehead (head hair; [6]): hair growth was observed | Hair growth on top of head (head hair; [6]): a good amount of hair growth was observed | Side effects (head hair; one year after start of use): side effects are not recognized | bFGF expression (immunostaining) ([3]; 10 pg/mL, 3 hours after application, hair follicle, epidermis, bulge region, external root sheath, erector pili muscles): Strong expression of bFGF was detected | bFGF expression in erector pili muscles (immunostaining) [3, 7]: reduced to moderate | bFGF expression in hair papilla cells (immunostaining) [3, 7]: became weak | bFGF expression, conclusion ([3]; epidermis, external root sheath, bulge region, hair matrix): expression of bFGF is induced | Hair growth state 2 weeks after application (C3H male mice; 1 pg/mL in 70% ethanol water): 6/8 | Hair growth state 2 weeks after application (C3H male mice; 10 pg/mL in 70% ethanol water): 4/8 | Hair growth state 2 weeks after application (C3H male mice; 100 pg/mL in 70% ethanol water): 5/7 | Death of mice during hair growth test (C3H male mice; 100 pg/mL, 2 weeks after application): one mouse died | Hair growth action at 1 pg/mL compared with 10 pg/mL (C3H male mice; [5]): higher | VEGF expression (immunostaining) [4]: VEGF positive reaction was found in hair papilla cells in the hair matrix

CC(C)CCC[C@@H](C)[C@H]1CC[C@H]2[C@@H]3CC=C4C[C@@H](O[C@@H]5O[C@H](CO)[C@@H](O)[C@H](O)[C@H]5O)CC[C@]4(C)[C@H]3CC[C@]12C [SCG, cholesteryl-β-D-glucopyranoside]
Hair growth state 2 weeks after application (C3H male mice; 1 pg/mL in 70% ethanol water): 6/8 | Hair growth state 2 weeks after application (C3H male mice; 10 pg/mL in 70% ethanol water): ⅝ | Hair growth state 2 weeks after application (C3H male mice; 100 pg/mL in 70% ethanol water): ⅜ | Hair growth action (summary of Table 1) (C3H male mice; [5]): same hair growth action as that of the cholesteryl glucopyranoside derived from feathers (FCG)

Source: US9974727B2, “Hair growth and hair restoration material” (INSTITUTE OF RHEOLOGICAL FUNCTION OF FOOD CO., LTD., priority 2011, dated 2018)
